Changes are numbered by the printed parent chain.
Assays:
[1] = target: T1, human Hv1 (wild type, dimeric) (Homo sapiens, UniProt Q96D96); assay: inside-out patch clamp, proton current inhibition, Hill fit; assay type: biochemical; details: wild-type dimer; open-channel block at +120 mV; pHi = pHo = 6.0; 22 °C; inhibitor on intracellular side
T1 construct: gene HVCN1; full-length human Hv1 homodimer, 273 residues; pGEMHE cRNA in Xenopus laevis oocytes, inside-out patches
T1 sequence (Q96D96 1-273): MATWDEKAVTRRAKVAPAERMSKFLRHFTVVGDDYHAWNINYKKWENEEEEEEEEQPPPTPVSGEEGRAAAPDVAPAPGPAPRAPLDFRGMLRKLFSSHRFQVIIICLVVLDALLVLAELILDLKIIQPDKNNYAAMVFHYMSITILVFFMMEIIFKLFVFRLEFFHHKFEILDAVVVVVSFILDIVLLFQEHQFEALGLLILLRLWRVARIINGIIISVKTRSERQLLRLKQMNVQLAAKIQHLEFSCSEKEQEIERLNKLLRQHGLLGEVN

[2] = target: T1, human Hv1 (wild type, dimeric); assay: cell-based; parameters: species or system Xenopus oocytes; patch-clamp proton currents, Hill fit of current inhibition, +120 mV, pHi = pHo = 6.0; details: apparent Kd, Hill fit of current inhibition; read-out: Kd (µM) (±SE)
Text: Figure 1 Hv1 inhibition by guanidinothiazole derivatives. […] [2] 2-guanidino-benzothiazole (GBTA), [3] (5-trifluoromethyl-1,3-benzothiazol-2-yl)guanidine, [4] naphtho[1,2-d][1,3]thiazol-2-yl-guanidine, [5] (4-methyl-1,3-thiazol-2-yl)guanidine, [6] […] 1-[4-(4-chlorophenyl)-1,3-thiazol-2-yl]guanidine, [12] 1-[4-(3,4-dimethoxyphenyl)-1,3-thiazol-2-yl]guanidine. (b) Inhibition of human Hv1 activity by the indicated guanidinothiazoles and reference compound 2GBI (teal column). Hv1 proton currents were measured in inside out patches from Xenopus oocytes in response to depolarizations to +120 mV from a holding potential of −80 mV. Each inhibitor was added to the bath solution at a concentration of 200 μM. pHi = pHo = 6.0. Data are means ± S.E.M. (n ≥ 4). (c) Concentration dependences of inhibition of human Hv1 by compounds [2], [3], [6], and [11]. […] Apparent dissociation constants (Kd) for the different combinations of channel and inhibitor (Supplementary Table 1) were determined by fitting the concentration dependences of inhibition (average %inhib values) with the Hill equation: Figure 6 Open-state coupling is mediated by direct physical interaction between outer ends of S1 segments in the two subunits. […] Hill coefficients in inset histograms were determined from fits reported in Supplementary Figs 3 and 4. […]

D112E I127C+βME = target: T2, D112E I127C+βME (Homo sapiens, UniProt Q96D96, D112E/I127C); assay: cell-based; parameters: species or system Xenopus oocytes; patch-clamp proton currents, Hill fit of current inhibition, +120 mV, pHi = pHo = 6.0; details: read-out: Kd (µM) (±SE)
T2 construct: gene HVCN1; Hv1 homodimer, cysteines reduced by 10 mM βME
T2 sequence (Q96D96 1-273 D112E/I127C): T1 sequence (Q96D96 1-273) with D112E, I127C
Procedure: (§1) [2] 2-guanidino-benzothiazole (GBTA), [3] (5-trifluoromethyl-1,3-benzothiazol-2-yl)guanidine, [4] naphtho[1,2-d][1,3]thiazol-2-yl-guanidine, [5] (4-methyl-1,3-thiazol-2-yl)guanidine, [6] […] 1-[4-(4-chlorophenyl)-1,3-thiazol-2-yl]guanidine, [12] 1-[4-(3,4-dimethoxyphenyl)-1,3-thiazol-2-yl]guanidine. […] Hv1 proton currents were measured in inside out patches from Xenopus oocytes in response to depolarizations to +120 mV from a holding potential of −80 mV. Each inhibitor was added to the bath solution at a concentration of 200 μM. pHi = pHo = 6.0. Data are means ± S.E.M. (n ≥ 4). […] (a) Schematics of mutant Hv1 dimers and linked dimers designed to study how intersubunit cysteine crosslinking affects GBTA binding cooperativity. […] Hill coefficients in inset histograms were determined from fits reported in Supplementary Figs 3 and 4.

I127C+βME = target: T3, I127C+βME (Homo sapiens, UniProt Q96D96, I127C); assay: cell-based; parameters: species or system Xenopus oocytes; patch-clamp proton currents, Hill fit of current inhibition, +120 mV, pHi = pHo = 6.0; details: read-out: Kd (µM) (±SE)
T3 construct: gene HVCN1; Hv1 homodimer, cysteines reduced by 10 mM βME
T3 sequence (Q96D96 1-273 I127C): T1 sequence (Q96D96 1-273) with I127C
Procedure: as §1

[3] = target: T4, human Hv1 (wild type, dimeric) D123R (Homo sapiens, UniProt Q96D96, D123R); assay: cell-based; parameters: species or system Xenopus oocytes; patch-clamp proton currents, Hill fit of current inhibition, +120 mV, pHi = pHo = 6.0; details: apparent Kd, Hill fit of current inhibition; read-out: Kd (µM) (±SE)
T4 construct: gene HVCN1; full-length human Hv1 homodimer, 273 residues; pGEMHE cRNA in Xenopus laevis oocytes, inside-out patches
T4 sequence (Q96D96 1-273 D123R): T1 sequence (Q96D96 1-273) with D123R
Procedure: as §1

[4] = target: T5, human Hv1 (wild type, dimeric) E119A (Homo sapiens, UniProt Q96D96, E119A); assay: cell-based; parameters: species or system Xenopus oocytes; patch-clamp proton currents, Hill fit of current inhibition, +120 mV, pHi = pHo = 6.0; details: apparent Kd, Hill fit of current inhibition; read-out: Kd (µM) (±SE)
T5 construct: gene HVCN1; full-length human Hv1 homodimer, 273 residues; pGEMHE cRNA in Xenopus laevis oocytes, inside-out patches
T5 sequence (Q96D96 1-273 E119A): T1 sequence (Q96D96 1-273) with E119A
Procedure: as §1

[5] = target: T6, human Hv1 (wild type, dimeric) K125A (Homo sapiens, UniProt Q96D96, K125A); assay: cell-based; parameters: species or system Xenopus oocytes; patch-clamp proton currents, Hill fit of current inhibition, +120 mV, pHi = pHo = 6.0; details: apparent Kd, Hill fit of current inhibition; read-out: Kd (µM) (±SE)
T6 construct: gene HVCN1; full-length human Hv1 homodimer, 273 residues; pGEMHE cRNA in Xenopus laevis oocytes, inside-out patches
T6 sequence (Q96D96 1-273 K125A): T1 sequence (Q96D96 1-273) with K125A
Procedure: as §1

Kd [2] [µM]	Kd (D112E I127C+βME) [µM]	Kd (I127C+βME) [µM]	Kd [3] [µM]	Kd [4] [µM]	Kd [5] [µM]	Structure (SMILES)	apparent Kd [1]
–	–	–	–	–	–	NC(N)=Nc1nc2ccccc2[nH]1 [compound 1, 2-Guanidino-benzimidazole]	inhibition of dimeric and monomeric Hv1 by compounds 2GBI and GBTA
90 ± 7	191 ± 11	44.3 ± 2.5	35.8 ± 2.4	40.5 ± 2.9	86 ± 6	N=C(N)Nc1nc2ccccc2s1 [compound 2, 2-guanidino-benzothiazole]	–
